Literature values in patent publication US20020127259A1, “Rumen by-pass delivery system” (priority 1998, published 2002).

Settings: given by Seghers in 1990

Row | Substance | relative rate of phospholipid hydration
1 | phosphatidylethanolamine [P-ethanolamine] | 16%
2 | Phosphatidylcholine | 100%
3 | phosphatidylinositol | 44%
4 | phosphatidic acid | 8.5%
